Literature values as cited in patent US6077513A, “Drug for treatment of bilharziasis (Schistosomiasis)” (priority 1997, dated 2000).

Key:
[1] = tested on: isolated guinea pig ileum

For `CC1=C[C@@H]2[C@@H](CC1)[C@@](C)(O)CC[C@H]2C(C)C` [T-Cadinol], which “smooth muscle relaxing effect” value [1] is on record?
The value was “concentration - dependent smooth muscle relaxing effect”.

And the antibacterial effect (Staphylococcus aureus)?
The antibacterial effect was “bacterial lysis and subsequent fatal loss of intracellular components”.
